Here are results for 26 compounds from US4734418A, “Quinazoline compounds and antihypertensives” (priority 1984, dated 1988).

Like-named read-outs stand apart in the source and are kept apart here.

For the data set, the system named is Spontaneously Hypertensive Rats. As to the kind of experiment: Test 1: antihypertensive effects (systolic tail artery blood pressure) and heart rate in spontaneously hypertensive rats, oral. It is filed as in vivo, rat (male, SHR). The settings on record: for change in vivo at 1 mg/kg / change in vivo at 10 mg/kg: Rattus norvegicus; for change in vivo at 1 mg/kg / Change (%) in heart rate: SHR; for Change (%) in heart rate: maximum value; for change in vivo at 10 mg/kg: po. How it is done:
The antihypertensive effects of the certain compounds of this invention were studied in the following manner.
Among male, spontaneously hypertensive rats (SHRs) of 20 weeks of age or older and 350-430 g heavy all of which had developed hypertension, those having systolic blood pressures of 180 mmHg or higher were used in groups, each of which was constituted of 3-4 of the rats. […] Besides, heart rates were also measured simultaneously. The compounds were each dissolved or suspended in a 0.5% methylcellulose solution and then administered orally.
*All administered orally at a dosage of 1 mg/Kg except for the compounds
**Each percent change in heart rate is indicated by the corresponding

[1] abbreviates: oral 1 mg/Kg, 1 hour, read-out: Antihypertensive effects, change (%) in blood pressure, 1 hour later.
Setting [2] is: oral 1 mg/Kg, 3 hours, read-out: Antihypertensive effects, change (%) in blood pressure, 3 hours later.
Where [3] appears, read: oral 1 mg/Kg, 6 hours, read-out: Antihypertensive effects, change (%) in blood pressure, 6 hours later.
The mark [4] stands for this setting: oral 1 mg/Kg, 24 hours, read-out: Antihypertensive effects, change (%) in blood pressure, 24 hours later.

On to `COCCn1ccc2nc(N3CCN(c4nc(N)c5cc(OC)c(OC)cc5n4)CC3)ncc2c1=O` [Example 8], for which the change in vivo at 1 mg/kg is, setting by setting: under setting [1], -0.5%; under setting [2], -9.5%; under setting [3], -11.4%; under setting [4], -4%. Besides, for the setting “oral 1 mg/Kg”, the “Change (%) in heart rate” value is given as “+5.2%”.

On to `COc1cc2nc(N3CCN(c4ncc5c(n4)CN(CCO)C5=O)CC3)nc(N)c2cc1OC` [Example 88], for which the change in vivo at 1 mg/kg is 0.5% under setting [1], -4.4% under setting [2], -6.9% under setting [3] and -2% under setting [4]. Further, the “Change (%) in heart rate” value (oral 1 mg/Kg) is reported as “+5.8%”.

Turning to `COCCN1Cc2nc(N3CCN(c4nc(N)c5cc(OC)c(OC)cc5n4)CC3)ncc2C1=O` [Example 87], the change in vivo at 1 mg/kg under setting [2] was -15.2%, the change in vivo at 1 mg/kg under setting [3] is -21.6% and the change in vivo at 1 mg/kg under setting [4] is -2.5%. Moreover, the “Change (%) in heart rate” value (oral 1 mg/Kg) is “+17.7%”.

For the compound `COc1cc2nc(N3CCN(c4ncc(C(=O)NCC(F)(F)F)c(C)n4)CC3)nc(N)c2cc1OC` [Example 48], the change in vivo at 1 mg/kg by setting is: under setting [1], -4.5%; under setting [2], -9%; under setting [3], -15%; under setting [4], -4%. For the setting “oral 1 mg/Kg”, the “Change (%) in heart rate” value is “+6.9%”.

As to `CCN(CC)C(=O)c1cnc(N2CCN(c3nc(N)c4cc(OC)c(OC)cc4n3)CC2)nc1NC` [Example 77], the change in vivo at 1 mg/kg by setting is: under setting [1], -31%; under setting [2], -32.9%; under setting [3], -36.2%; under setting [4], -13.8%. For the same compound, where the note is “oral 1 mg/Kg”, the “Change (%) in heart rate” value was “+25.1%”.

In the case of `COc1cc2nc(N3CCN(c4ncc(C(=O)N(C)C)c(C)n4)CC3)nc(N)c2cc1OC` [Example 46], the change in vivo at 1 mg/kg was 0% under setting [1], -11.9% under setting [2], -17.5% under setting [3] and -5.7% under setting [4]. The “Change (%) in heart rate” value (oral 1 mg/Kg) is given as “+7.4%”.

Consider `COc1cc2nc(N3CCN(c4ncc5c(=O)n(C6CC6)ccc5n4)CC3)nc(N)c2cc1OC` [Example 11], for which the change in vivo at 1 mg/kg under setting [1] was -0.5%, the change in vivo at 1 mg/kg under setting [2] is -16.6%, the change in vivo at 1 mg/kg under setting [3] is -17.1% and the change in vivo at 1 mg/kg under setting [4] was -6.8%. The “Change (%) in heart rate” value (oral 1 mg/Kg) was “+5.7%”.

For the compound `CCOC(=O)c1cnc(N2CCN(c3nc(N)c4cc(OC)c(OC)cc4n3)CC2)nc1N(CC)CC` [Example 58], the change in vivo at 1 mg/kg was -7.4% under setting [1], -17.6% under setting [2], -22.5% under setting [3] and -9.8% under setting [4]. The “Change (%) in heart rate” value (oral 1 mg/Kg) is “+9.8%”.

`CCNc1nc(N2CCN(c3nc(N)c4cc(OC)c(OC)cc4n3)CC2)ncc1C(=O)OCC` [Example 57]: the change in vivo at 1 mg/kg was -10.4% under setting [1], -18.9% under setting [2], -27.9% under setting [3] and -9% under setting [4]. In addition, the “Change (%) in heart rate” value (oral 1 mg/Kg) is listed as “+4.3%”.

For `CCn1cc(C#N)c2nc(N3CCN(c4nc(N)c5cc(OC)c(OC)cc5n4)CC3)ncc2c1=O` [Example 13], the change in vivo at 1 mg/kg is -1% under setting [1], -3.9% under setting [2] and -3.9% under setting [4]. Where the note is “oral 1 mg/Kg”, the “Change (%) in heart rate” value is “+7.4%”.

For `CCOC(=O)c1cnc(N2CCN(c3nc(N)c4cc(OC)c(OC)cc4n3)CC2)nc1C(=O)OCC` [Example 84], the change in vivo at 1 mg/kg by setting is: under setting [1], 0.5%; under setting [2], 0%; under setting [3], -1.5%; under setting [4], -0.5%. The “Change (%) in heart rate” value (oral 1 mg/Kg) is “+2.2%”.

With `CCOc1nccc2nc(N3CCN(c4nc(N)c5cc(OC)c(OC)cc5n4)CC3)ncc12` [Example 74], the change in vivo at 1 mg/kg is -0.5% under setting [1], -14.1% under setting [2], -23.3% under setting [3] and -12.1% under setting [4]. In addition, the “Change (%) in heart rate” value (oral 1 mg/Kg) is listed as “+9.0%”.

As to `CCOC(=O)c1cnc(N2CCN(c3nc(N)c4cc(OC)c(OC)cc4n3)CC2)nc1NC(C)C` [Example 59], the change in vivo at 1 mg/kg runs as follows: under setting [1], -10.1%; under setting [2], -23.9%; under setting [3], -30.6%; under setting [4], -12.4%. Under “oral 1 mg/Kg”, the “Change (%) in heart rate” value is listed as “+5.7%”.

In the case of `COc1cc2nc(N3CCN(c4ncc(C(=O)NC5CCCCC5)c(C)n4)CC3)nc(N)c2cc1OC` [Example 45], the change in vivo at 1 mg/kg under setting [1] is -1.5%, the change in vivo at 1 mg/kg under setting [2] was -2.5%, the change in vivo at 1 mg/kg under setting [3] is -8% and the change in vivo at 1 mg/kg under setting [4] was -5.5%. Besides, the “Change (%) in heart rate” value (oral 1 mg/Kg) was “+4.2%”.

As to `CCNC(=O)c1cnc(N2CCN(c3nc(N)c4cc(OC)c(OC)cc4n3)CC2)nc1C` [Example 41], the change in vivo at 1 mg/kg reads like this: under setting [1], -11.2%; under setting [2], -19.5%; under setting [3], -25.9%; under setting [4], -3.9%. Moreover, for the setting “oral 1 mg/Kg”, the “Change (%) in heart rate” value is reported as “+9.2%”.

Turning to `CCn1ccc2nc(N3CCCN(c4nc(N)c5cc(OC)c(OC)cc5n4)CC3)ncc2c1=O` [Example 82, 4-Amino-6,7-dimethoxy-2-(4-(5,6-dihydro-6-ethyl-5-oxopyrido[4,3-d]pyrimidin-2-yl)homopiperazino)quinazoline], the change in vivo at 1 mg/kg by setting is: under setting [1], 0.5%; under setting [2], -6.9%; under setting [3], -8.8%; under setting [4], -6.4%. Moreover, under “oral 1 mg/Kg”, the “Change (%) in heart rate” value is recorded as “+5.8%”.

For `COc1cc2nc(N3CCN(c4ncc5c(=O)[nH]ccc5n4)CC3)nc(N)c2cc1OC` [Example 3], the change in vivo at 1 mg/kg by setting is: under setting [1], -2.5%; under setting [2], -8%; under setting [3], -15.1%; under setting [4], -5%. The “Change (%) in heart rate” value (oral 1 mg/Kg) is listed as “+7.1%”.

Turning to `COc1cc2nc(N3CCN(c4ncc5c(n4)CCCC5=O)CC3)nc(N)c2cc1OC` [Example 33], the change in vivo at 1 mg/kg reads like this: under setting [1], -20.4%; under setting [2], -27%; under setting [3], -32.1%; under setting [4], -9.7%. In addition, under “oral 1 mg/Kg”, the “Change (%) in heart rate” value is on record as “+17.5%”.

Turning to `COc1cc2nc(N3CCN(c4ncc5c(n4)CN(CCc4ccccc4)C5=O)CC3)nc(N)c2cc1OC` [Example 89], the change in vivo at 1 mg/kg by setting is: under setting [1], -2.4%; under setting [2], -13.3%; under setting [3], -13.8%; under setting [4], -2.9%. Besides, for the setting “oral 1 mg/Kg”, the “Change (%) in heart rate” value is reported as “+5.8%”.

For the compound `COc1cc2nc(N3CCN(c4ncc5c(n4)CC(c4ccccc4)NC5=O)CC3)nc(N)c2cc1OC` (centres unmarked) [Example 19], the change in vivo at 1 mg/kg reads like this: under setting [1], -2.4%; under setting [2], -10.1%; under setting [3], -11.1%; under setting [4], -2.9%. The “Change (%) in heart rate” value (oral 1 mg/Kg) is given as “+2.9%”.

Take `COc1cc2nc(N3CCN(c4nc(N(C)C)c5cc(OC)c(OC)cc5n4)CC3)nc(N)c2cc1OC` [Example 73]: the change in vivo at 1 mg/kg by setting is: under setting [1], -0.5%; under setting [2], 0%; under setting [3], -7%; under setting [4], -8%. For the same compound, the “Change (%) in heart rate” value (oral 1 mg/Kg) was “+4.3%”.

Turning to `CNc1nc(N2CCN(c3nc(N)c4cc(OC)c(OC)cc4n3)CC2)ncc1C(=O)N(C)C` [Example 69], the change in vivo at 1 mg/kg reads like this: under setting [1], -12.9%; under setting [2], -22.7%; under setting [3], -24.7%; under setting [4], -4.6%. For the same compound, for the setting “oral 1 mg/Kg”, the “Change (%) in heart rate” value is listed as “+7.4%”.

Take `COc1cc2nc(N3CCN(c4ncc(C(=O)NCc5ccccc5)c(C)n4)CC3)nc(N)c2cc1OC` [Example 44]: the change in vivo at 1 mg/kg by setting is: under setting [1], 9.1%; under setting [2], 0%; under setting [3], -4%; under setting [4], 0%. Also, the “Change (%) in heart rate” value (oral 1 mg/Kg) is given as “+7.9%”.

On to `CCNC(=O)c1cnc(N2CCN(c3nc(N)c4cc(OC)c(OC)cc4n3)CC2)nc1N` [Example 64], for which the change in vivo at 1 mg/kg is, setting by setting: under setting [1], -1.4%; under setting [2], -9.6%; under setting [3], -13.9%; under setting [4], -1.9%. Moreover, the “Change (%) in heart rate” value (oral 1 mg/Kg) is recorded as “+9.9%”.

On to `COc1cc2nc(N3CCN(c4ncc([N+](=O)[O-])cc4[N+](=O)[O-])CC3)nc(N)c2cc1OC` [Example 92], for which the change in vivo at 10 mg/kg by setting is: (1 h, read-out: Antihypertensive effects, change (%) in blood pressure, 1 hour later) 1.4%; (3 h, read-out: Antihypertensive effects, change (%) in blood pressure, 3 hours later) -3.3%; (6 h, read-out: Antihypertensive effects, change (%) in blood pressure, 6 hours later) -9.4%; (24 h, read-out: Antihypertensive effects, change (%) in blood pressure, 24 hours later) -6.1%. Further, the “Change (%) in heart rate” value (oral 10 mg/Kg) is given as “+8.5%”.

Take `COc1cc2nc(N3CCN(c4ncc(C(=O)N5CCCC5)c(C)n4)CC3)nc(N)c2cc1OC` [Example 49]: the change in vivo at 1 mg/kg is -4.5% under setting [1], -10.6% under setting [2], -13.1% under setting [3] and -7.5% under setting [4]. In addition, the “Change (%) in heart rate” value (oral 1 mg/Kg) was “+6.3%”.
